This assay deals with Vibrio fischeri. Put plainly: increase in luminescence of Vibrio fischeri culture with addition of aspartic acid to the cultivation medium. The assay is classed as cell-based. The note with it: 12.5 mg of aspartic acid added to cultivation medium; aspartic acid-free medium starts only at a later time. As to the method: In two cultivation experiments carried out in parallel, bacterial suspensions were prepared according to the method described below. In order to test the influence of aspartic acid, 12.5 mg of aspartic acid had been added to the cultivation medium of one of the two reaction mixtures. The effect of the addition of aspartic acid was detected by taking luminescence images using the Nightowl camera system from EG&G Berthold and is depicted in FIGS. 2a and 2b.
A tissue culture flask (e.g. Falcon Cat. No. 353110) which contains 125 ml of cultivation medium and a magnetic stirring bar was inoculated with bacteria from a Vibrio fischeri strain stock. The inoculated cultivation solution was then incubated with slow stirring on a magnetic stirrer at room temperature.

Regarding `N[C@@H](CC(=O)O)C(=O)O` [aspartic acid], the “incubation time after which the culture showed a distinct luminescence” value is given as at most 18 h.

For the origin of these results see patent US20040033587A1, “Method and device for detecting Biologically Active Substances” (Bayer Aktiengesellschaft, priority 2002, published 2004).
